Patent US20240217936A1, “5-BENZY[…] AND PREPARATION METHOD THEREFOR AND USE THEREOF” (WEST CHINA HOSPITAL, SICHUAN UNIVERSITY, priority 2021, published 2024)
Structures can show the parent of a compound that is named as a salt.

Key:
[1] = Degradation of prodrug in rat plasma (release of dexmedetomidine, HPLC); type: in vitro ADME; settings: 37° C.
Protocol: The test prodrug was formulated as a 1 mg/mL of physiological saline solution, and then 100 μL of the prodrug solution was added to 900 μL of rat plasma. The test solution was vortexed for 30 s before incubation at 37° C. 50 μL of drug-containing plasma was collected at 0.5 min, 1 min, 2 min, 3 min, 5 min, 10 min, 15 min, 20 min, 30 min, and 60 min, respectively, to which was immediately added 150 μL of acetonitrile to terminate the enzymatic reaction, followed by adding the solution of internal standard telmisartan in methanol (30 μL, 20 μg/mL). Then, the resultant solution was centrifuged at 20000 rpm and 4° C. for 10 min. 100 μL of the supernatant was injected for detection by HPLC, and the concentration of dexmedetomidine was determined by an internal standard method. The degradation rate of the prodrug was calculated based on the concentration of dexmedetomidine. The chromatographic conditions are: Swell XDB C18 column (150 mm×4.6 mm, 5 μm); column temperature 30° C.; using gradient elution (see Table 1), mobile phase A: methanol, mobile phase B: 0.1% trifluoroacetic acid in water, and mobile phase C: acetonitrile; detection wavelength: 220 nm; flow rate: 1.0 mL/min; injection volume: 30 μL; retention time: 4.7 minutes for dexmedetomidine and 6.7 minutes for internal standard telmisartan. The linear range of dexmedetomidine: 2.5-100 μg/mL. Instruments: Waters 2695 high-performance liquid chromatograph, Waters 2996 photodiode array detector.

[2] = test system: Male SD rats; test: Hypnotic effect after tail vein injection (loss of righting reflex); type: in vivo, rat; settings: for ED50: Rattus norvegicus, 50% of the dose for the disappearance of righting reflex in rats, tail vein injection; for Onset time: tail vein injection of 2× ED50, loss of righting reflex; for Onset time / Duration: rats; for Duration: tail vein injection of 2× ED50, until recovery of righting reflex
Protocol: Male SD rats, weighing 250-300 g, were randomly divided into groups, with 10 rats in each group. […] The onset times and the duration of hypnosis were recorded.

[3] = test system: Male SD rats; test: Blood pressure change after tail vein injection (mean arterial pressure); settings: dosage 2× ED50, injection within 15 seconds, 60 min recording, rats under isoflurane
Protocol: Male SD rats weighing 250-300 g were randomly divided into groups, with 10 rats in each group. General anesthesia was maintained by inhaling isoflurane. By intubating via femoral artery, blood pressure was monitored using the BL-420N biological signal collection and analysis system. minutes after blood pressure stabilization, the baseline mean arterial pressure (MAP0) was measured. Subsequently, the physiological saline solution of each test drug was injected via the tail vein (the dosage of each drug was the same as that in Experiment example 2, with a unified injection […] volume of 1 mL). […] All prodrug molecules were injected within 15 seconds. After injection of each drug, the change in blood pressure was continuously recorded for 60 min. […] The difference MAPΔ+ between the baseline mean arterial pressure (MAP0) and the highest mean arterial pressure (MAPmax) during the 60 min measurement time was calculated; the difference MAPΔ− between the baseline mean arterial pressure (MAP0) and the lowest mean arterial pressure (MAPmin) during the 60 min measurement time was also obtained; both of the difference values were used to calculate the maximum increase rate of mean arterial pressure +Δ%=MAPΔ+/MAP0*100% and the maximum decrease rate of mean arterial pressure −Δ%=MAPΔ−/MAP0*100%, respectively. The maximum increase rate of mean arterial pressure +Δ% and the maximum decrease rate −Δ% reflect the degree of blood pressure change that the body experienced after administration. The larger the value, the greater the blood pressure change that the body experienced.

SMILES: Cc1cccc([C@H](C)c2cn(COC(=O)C3CC3)cn2)c1C [Compound 15-HCl]
- Degradation rate of prodrug % ([1]; 0.5 min): 18%
- Degradation rate of prodrug % ([1]; 1 min): 41%
- Degradation rate of prodrug % ([1]; 2 min): 54%
- Degradation rate of prodrug % ([1]; 3 min): 63%
- Degradation rate of prodrug % ([1]; 5 min): 87%
- Degradation rate of prodrug % ([1]; 10 min): 94%
- Degradation rate of prodrug % ([1]; 15 min): 100%
- ED50 [2]: 0.03 mg/kg
- Onset time [2]: 3.5 ± 1.2 min
- Duration [2]: 43 ± 9 min
- +Δ % (The maximum increase rate of blood pressure) [3]: *21 ± 5%
- −Δ % (The maximum decrease rate of blood pressure) [3]: 36 ± 6%

SMILES: Cc1cccc([C@H](C)c2cn(COC(=O)C(C)C)cn2)c1C [Compound 2-HCl]
- Degradation rate of prodrug % ([1]; 0.5 min): 35%
- Degradation rate of prodrug % ([1]; 1 min): 57%
- Degradation rate of prodrug % ([1]; 2 min): 87%
- Degradation rate of prodrug % ([1]; 3 min): 94%
- Degradation rate of prodrug % ([1]; 5 min): 100%
- ED50 [2]: 0.043 mg/kg
- Onset time [2]: 1.1 ± 0.2 min
- Duration [2]: 63 ± 15 min
- +Δ % (The maximum increase rate of blood pressure) [3]: *19 ± 11%
- −Δ % (The maximum decrease rate of blood pressure) [3]: 32 ± 5%

SMILES: Cc1cccc([C@H](C)c2cn(C(=O)OC(C)C)cn2)c1C [Compound 5-HCl]
- Degradation rate of prodrug % ([1]; 0.5 min): 36%
- Degradation rate of prodrug % ([1]; 1 min): 47%
- Degradation rate of prodrug % ([1]; 2 min): 52%
- Degradation rate of prodrug % ([1]; 3 min): 67%
- Degradation rate of prodrug % ([1]; 5 min): 89%
- Degradation rate of prodrug % ([1]; 10 min): 98%
- Degradation rate of prodrug % ([1]; 15 min): 100%
- ED50 [2]: 0.037 mg/kg
- Onset time [2]: 3.7 ± 1.3 min
- Duration [2]: 61 ± 15 min
- +Δ % (The maximum increase rate of blood pressure) [3]: *18 ± 6%
- −Δ % (The maximum decrease rate of blood pressure) [3]: 35 ± 5%

SMILES: Cc1cccc([C@H](C)c2cn(COP(=O)(O)O)cn2)c1C [Compound 26]
- Degradation rate of prodrug % ([1]; 0.5 min): 29%
- Degradation rate of prodrug % ([1]; 1 min): 31%
- Degradation rate of prodrug % ([1]; 2 min): 32%
- Degradation rate of prodrug % ([1]; 3 min): 33%
- Degradation rate of prodrug % ([1]; 5 min): 34%
- Degradation rate of prodrug % ([1]; 10 min): 35%
- Degradation rate of prodrug % ([1]; 15 min): 37%
- Degradation rate of prodrug % ([1]; 20 min): 38%
- Degradation rate of prodrug % ([1]; 30 min): 43%
- Degradation rate of prodrug % ([1]; 60 min): 56%
- ED50 [2]: 0.032 mg/kg
- Onset time [2]: 1.7 ± 0.3 min
- Duration [2]: 46 ± 5 min
- +Δ % (The maximum increase rate of blood pressure) [3]: *15 ± 8%
- −Δ % (The maximum decrease rate of blood pressure) [3]: 36 ± 8%

SMILES: CCOC(=O)COC(=O)OCn1cnc([C@@H](C)c2cccc(C)c2C)c1 [Compound 24-HCl]
- Degradation rate of prodrug % ([1]; 0.5 min): 18%
- Degradation rate of prodrug % ([1]; 1 min): 21%
- Degradation rate of prodrug % ([1]; 2 min): 24%
- Degradation rate of prodrug % ([1]; 3 min): 27%
- Degradation rate of prodrug % ([1]; 5 min): 31%
- Degradation rate of prodrug % ([1]; 10 min): 33%
- Degradation rate of prodrug % ([1]; 15 min): 36%
- Degradation rate of prodrug % ([1]; 20 min): 37%
- Degradation rate of prodrug % ([1]; 30 min): 38%
- Degradation rate of prodrug % ([1]; 60 min): 41%
- ED50 [2]: 0.03 mg/kg
- Onset time [2]: 1.3 ± 0.4 min
- Duration [2]: 47 ± 7 min
- +Δ % (The maximum increase rate of blood pressure) [3]: *27 ± 12%

SMILES: CC(=O)OC(C)n1cnc([C@@H](C)c2cccc(C)c2C)c1 (stereo partly shown) [Compound 17-HCl]
- Degradation rate of prodrug % ([1]; 0.5 min): 12%
- Degradation rate of prodrug % ([1]; 1 min): 16%
- Degradation rate of prodrug % ([1]; 2 min): 19%
- Degradation rate of prodrug % ([1]; 3 min): 22%
- Degradation rate of prodrug % ([1]; 5 min): 29%
- Degradation rate of prodrug % ([1]; 10 min): 39%
- Degradation rate of prodrug % ([1]; 15 min): 48%
- Degradation rate of prodrug % ([1]; 20 min): 53%
- Degradation rate of prodrug % ([1]; 30 min): 58%
- Degradation rate of prodrug % ([1]; 60 min): 67%
- ED50 [2]: 0.029 mg/kg
- Onset time [2]: 1.8 ± 0.7 min
- Duration [2]: 42 ± 12 min
- +Δ % (The maximum increase rate of blood pressure) [3]: *15 ± 4%
- −Δ % (The maximum decrease rate of blood pressure) [3]: 35 ± 6%

SMILES: COC(=O)CCC(=O)OCn1cnc([C@@H](C)c2cccc(C)c2C)c1 [Compound 25-HCl]
- Degradation rate of prodrug % ([1]; 0.5 min): 51%
- Degradation rate of prodrug % ([1]; 1 min): 56%
- Degradation rate of prodrug % ([1]; 2 min): 59%
- Degradation rate of prodrug % ([1]; 3 min): 64%
- Degradation rate of prodrug % ([1]; 5 min): 67%
- Degradation rate of prodrug % ([1]; 10 min): 68%
- Degradation rate of prodrug % ([1]; 15 min): 69%
- Degradation rate of prodrug % ([1]; 20 min): 72%
- Degradation rate of prodrug % ([1]; 30 min): 76%
- Degradation rate of prodrug % ([1]; 60 min): 79%
- ED50 [2]: 0.041 mg/kg
- Onset time [2]: 3.1 ± 0.9 min
- Duration [2]: 63 ± 15 min
- +Δ % (The maximum increase rate of blood pressure) [3]: 31 ± 14%
- −Δ % (The maximum decrease rate of blood pressure) [3]: 37 ± 7%

SMILES: CCOC(=O)OCn1cnc([C@@H](C)c2cccc(C)c2C)c1 [Compound 6-HCl]
- Degradation rate of prodrug % ([1]; 0.5 min): 21%
- Degradation rate of prodrug % ([1]; 1 min): 47%
- Degradation rate of prodrug % ([1]; 2 min): 76%
- Degradation rate of prodrug % ([1]; 3 min): 89%
- Degradation rate of prodrug % ([1]; 5 min): 96%
- Degradation rate of prodrug % ([1]; 10 min): 100%
- ED50 [2]: 0.03 mg/kg
- Onset time [2]: 2.1 ± 1.1 min
- Duration [2]: 45 ± 8 min
- +Δ % (The maximum increase rate of blood pressure) [3]: *23 ± 9%
- −Δ % (The maximum decrease rate of blood pressure) [3]: 36 ± 6%

SMILES: COC(=O)COC(=O)OCn1cnc([C@@H](C)c2cccc(C)c2C)c1 [Compound 23-HCl]
- Degradation rate of prodrug % ([1]; 0.5 min): 23%
- Degradation rate of prodrug % ([1]; 5 min): 25%
- Degradation rate of prodrug % ([1]; 10 min): 27%
- Degradation rate of prodrug % ([1]; 15 min): 28%
- Degradation rate of prodrug % ([1]; 20 min): 29%
- Degradation rate of prodrug % ([1]; 30 min): 31%
- Degradation rate of prodrug % ([1]; 60 min): 34%
- ED50 [2]: 0.051 mg/kg
- Onset time [2]: 1.7 ± 0.4 min
- Duration [2]: 61 ± 15 min
- +Δ % (The maximum increase rate of blood pressure) [3]: 29 ± 7%
- −Δ % (The maximum decrease rate of blood pressure) [3]: 35 ± 8%

SMILES: CCCC(=O)OCn1cnc([C@@H](C)c2cccc(C)c2C)c1 [Compound 8-HCl]
- Degradation rate of prodrug % ([1]; 0.5 min): 76%
- Degradation rate of prodrug % ([1]; 1 min): 89%
- Degradation rate of prodrug % ([1]; 2 min): 97%
- Degradation rate of prodrug % ([1]; 3 min): 100%
- ED50 [2]: 0.024 mg/kg
- Onset time [2]: 4.1 ± 2.4 min
- Duration [2]: 31 ± 13 min
- +Δ % (The maximum increase rate of blood pressure) [3]: *18 ± 8%
- −Δ % (The maximum decrease rate of blood pressure) [3]: 31 ± 7%

SMILES: CCC(=O)OCn1cnc([C@@H](C)c2cccc(C)c2C)c1 [Compound 10-HCl]
- Degradation rate of prodrug % ([1]; 0.5 min): 57%
- Degradation rate of prodrug % ([1]; 1 min): 82%
- Degradation rate of prodrug % ([1]; 2 min): 85%
- Degradation rate of prodrug % ([1]; 3 min): 97%
- Degradation rate of prodrug % ([1]; 5 min): 100%
- ED50 [2]: 0.028 mg/kg
- Onset time [2]: 2.3 ± 1.1 min
- Duration [2]: 48 ± 12 min
- +Δ % (The maximum increase rate of blood pressure) [3]: 31 ± 7%
- −Δ % (The maximum decrease rate of blood pressure) [3]: 40 ± 8%

SMILES: Cc1cccc([C@H](C)c2cn(COC(=O)OC3CC3)cn2)c1C [Compound 22-HCl]
- Degradation rate of prodrug % ([1]; 0.5 min): 91%
- Degradation rate of prodrug % ([1]; 1 min): 97%
- Degradation rate of prodrug % ([1]; 2 min): 100%
- ED50 [2]: 0.024 mg/kg
- Onset time [2]: 1.5 ± 0.2 min
- Duration [2]: 48 ± 9 min
- +Δ % (The maximum increase rate of blood pressure) [3]: 34 ± 7%
- −Δ % (The maximum decrease rate of blood pressure) [3]: 39 ± 6%

SMILES: Cc1cccc([C@H](C)c2cn(COC(=O)OC(C)C)cn2)c1C [Compound 7-HCl]
- Degradation rate of prodrug % ([1]; 0.5 min): 22%
- Degradation rate of prodrug % ([1]; 1 min): 46%
- Degradation rate of prodrug % ([1]; 2 min): 67%
- Degradation rate of prodrug % ([1]; 3 min): 88%
- Degradation rate of prodrug % ([1]; 5 min): 97%
- Degradation rate of prodrug % ([1]; 10 min): 100%
- ED50 [2]: 0.036 mg/kg
- Onset time [2]: 4.6 ± 1.3 min
- Duration [2]: 39 ± 11 min
- +Δ % (The maximum increase rate of blood pressure) [3]: *17 ± 8%
- −Δ % (The maximum decrease rate of blood pressure) [3]: 37 ± 8%
